These are literature values, as cited in US20130210878A1, “BENDAMUSTINE COMPOSITIONS AND METHODS THEREFORE” (Innopharma, Inc., priority 2012, published 2013).

SMILES strings stand for the structures. Read-outs that look alike come from different tables or passages of the source.

For this data set the following is noted: 0.25 mg/ml in 0.9% sodium chloride.

As for `Cl.Cn1c(CCCC(=O)O)nc2cc(N(CCCl)CCCl)ccc21` [Bendamustine HCl, 1H-benzimidazole-2-butanoic acid, 5-[bis(2-chloro-ethyl)amino]-1 methyl-, monohydrochloride], the time stable by setting is: (4° C.) 4 days; (23° C.) 0.38 days.
